Measurements reported in US20050070510A1, “Substituted tetracycline compounds as synergistic antifungal agents” (Paratek Pharmaceuticals, Inc., priority 2001, published 2005).

system: COS-1 cells; assay: In vitro mammalian cytotoxicity assay (Resazurin)

| Structure (SMILES) | In Vitro Cytotoxicity |
| --- | --- |
| COc1cccc(C#Cc2cc(N(C)C)c3c(c2O)C(=O)C2=C(O)[C@]4(C#N)C(=O)C(C(N)=O)=C(O)[C@@H](N(C)C)[C@]4(N)C[C@]2(N)C3)c1 [JF] | ** (toxicities less than 25 μg/mL are represented by **) |
| CN(C)c1cc(C#Cc2ccc(N)cc2)c(O)c2c1C[C@@]1(N)C[C@@]3(N)[C@H](N(C)C)C(O)=C(C(N)=O)C(=O)[C@@]3(C#N)C(O)=C1C2=O [JG] | * (toxicities greater than >25 μg/ml are represented by *) |
| CN(C)c1cc(C#Cc2cccnc2)c(O)c2c1C[C@@]1(N)C[C@@]3(N)[C@H](N(C)C)C(O)=C(C(N)=O)C(=O)[C@@]3(C#N)C(O)=C1C2=O [JH] | ** (toxicities less than 25 μg/mL are represented by **) |
| COC(=O)C#Cc1cc(N(C)C)c2c(c1O)C(=O)C1=C(O)[C@]3(C#N)C(=O)C(C(N)=O)=C(O)[C@@H](N(C)C)[C@]3(N)C[C@]1(N)C2 [JI] | * (toxicities greater than >25 μg/ml are represented by *) |
| Cc1ccc(S(=O)(=O)NC(=O)C#Cc2cc(N(C)C)c3c(c2O)C(=O)C2=C(O)[C@]4(C#N)C(=O)C(C(N)=O)=C(O)[C@@H](N(C)C)[C@]4(N)C[C@]2(N)C3)cc1 [JJ] | * (toxicities greater than >25 μg/ml are represented by *) |
| CN(C)[C@@H]1C(O)=C(C(N)=O)C(=O)[C@@]2(C#N)C(O)=C3C(=O)c4c(O)c(CN)cc(-c5cccc([N+](=O)O)c5)c4C[C@@]3(N)C[C@@]12N [JP] | * (toxicities greater than >25 μg/ml are represented by *) |
| CN(C)[C@@H]1C(O)=C(C(N)=O)C(=O)[C@@]2(C#N)C(O)=C3C(=O)c4c(O)c(CN5C(=O)c6ccccc6C5=O)cc(-c5cccc([N+](=O)O)c5)c4C[C@@]3(N)C[C@@]12N [JQ] | ** (toxicities less than 25 μg/mL are represented by **) |
| CN(C)[C@@H]1C(O)=C(C(N)=O)C(=O)[C@@]2(C#N)C(O)=C3C(=O)c4c(O)ccc(C(=O)O)c4C[C@@]3(N)C[C@@]12N [JR] | * (toxicities greater than >25 μg/ml are represented by *) |
| CCCc1cc(CN)c(O)c2c1C[C@@]1(N)C[C@@]3(N)[C@H](N(C)C)C(O)=C(C(N)=O)C(=O)[C@@]3(C#N)C(O)=C1C2=O [JS] | * (toxicities greater than >25 μg/ml are represented by *) |
| CN(C)[C@@H]1C(O)=C(C(N)=O)C(=O)[C@@]2(C#N)C(O)=C3C(=O)c4c(O)c(CN)cc(-c5ccc(I)cc5)c4C[C@@]3(N)C[C@@]12N [JT] | * (toxicities greater than >25 μg/ml are represented by *) |
| CCCCCc1ccc(O)c2c1C[C@@]1(N)C[C@@]3(N)[C@H](N(C)C)C(O)=C(C(N)=O)C(=O)[C@@]3(C#N)C(O)=C1C2=O [JU] | ** (toxicities less than 25 μg/mL are represented by **) |
| CCC#Cc1ccc(O)c2c1C[C@@]1(N)C[C@@]3(N)[C@H](N(C)C)C(O)=C(C(N)=O)C(=O)[C@@]3(C#N)C(O)=C1C2=O [JW] | ** (toxicities less than 25 μg/mL are represented by **) |
| CN(C)c1cc(CCCNS(C)(=O)=O)c(O)c2c1C[C@@]1(N)C[C@@]3(N)[C@H](N(C)C)C(O)=C(C(N)=O)C(=O)[C@@]3(C#N)C(O)=C1C2=O [JX] | * (toxicities greater than >25 μg/ml are represented by *) |
| CC(C)S(=O)(=O)NCC#Cc1cc(N(C)C)c2c(c1O)C(=O)C1=C(O)[C@]3(C#N)C(=O)C(C(N)=O)=C(O)[C@@H](N(C)C)[C@]3(N)C[C@]1(N)C2 [JY] | * (toxicities greater than >25 μg/ml are represented by *) |
| CN(C)c1cc(-c2ccc(CN3CCCC3)cc2)c(O)c2c1C[C@@]1(N)C[C@@]3(N)[C@H](N(C)C)C(O)=C(C(N)=O)C(=O)[C@@]3(C#N)C(O)=C1C2=O [JZ] | ** (toxicities less than 25 μg/mL are represented by **) |
| CCCC#Cc1ccc(O)c2c1C[C@@]1(N)C[C@@]3(N)[C@H](N(C)C)C(O)=C(C(N)=O)C(=O)[C@@]3(C#N)C(O)=C1C2=O [KA] | ** (toxicities less than 25 μg/mL are represented by **) |
| CN(C)[C@@H]1C(O)=C(C(N)=O)C(=O)[C@@]2(C#N)C(O)=C3C(=O)c4c(O)c(CN)cc(-c5cccc([N+](=O)O)c5)c4C[C@@]3(N)C[C@@]12N [KB] | ** (toxicities less than 25 μg/mL are represented by **) |
| CN(C)[C@@H]1C(O)=C(C(N)=O)C(=O)[C@@]2(C#N)C(O)=C3C(=O)c4c(O)c(CNC(=O)CCl)cc(-c5ccccc5)c4C[C@@]3(N)C[C@@]12N [KD] | ** (toxicities less than 25 μg/mL are represented by **) |
| CCc1cc(C#CC2=CCCCC2)c(O)c2c1C[C@@]1(N)C[C@@]3(N)[C@H](N(C)C)C(O)=C(C(N)=O)C(=O)[C@@]3(C#N)C(O)=C1C2=O [KE] | ** (toxicities less than 25 μg/mL are represented by **) |
| CN(C)c1cc(CCc2ccc(F)cc2)c(O)c2c1C[C@@]1(N)C[C@@]3(N)[C@H](N(C)C)C(O)=C(C(N)=O)C(=O)[C@@]3(C#N)C(O)=C1C2=O [KF] | ** (toxicities less than 25 μg/mL are represented by **) |
| CN(C)c1ccc(O)c2c1C[C@@]1(N)C[C@@]3(N)[C@H](N(C)C)C(O)=C(C(=O)NCNC(=O)CCl)C(=O)[C@@]3(C#N)C(O)=C1C2=O [KG] | ** (toxicities less than 25 μg/mL are represented by **) |
| CCOC(=O)Nc1cc(N(C)C)c2c(c1O)C(=O)C1=C(O)[C@]3(C#N)C(=O)C(C(N)=O)=C(O)[C@@H](N(C)C)[C@]3(N)C[C@]1(N)C2 [KH] | ** (toxicities less than 25 μg/mL are represented by **) |
| CCCCOC(=O)Nc1cc(N(C)C)c2c(c1O)C(=O)C1=C(O)[C@]3(C#N)C(=O)C(C(N)=O)=C(O)[C@@H](N(C)C)[C@]3(N)C[C@]1(N)C2 [KI] | ** (toxicities less than 25 μg/mL are represented by **) |
| CCNC(=O)Nc1cc(N(C)C)c2c(c1O)C(=O)C1=C(O)[C@]3(C#N)C(=O)C(C(N)=O)=C(O)[C@@H](N(C)C)[C@]3(N)C[C@]1(N)C2 [KJ] | ** (toxicities less than 25 μg/mL are represented by **) |
| CN(C)c1cc(C#CCc2ccccc2)c(O)c2c1C[C@@]1(N)C[C@@]3(N)[C@H](N(C)C)C(O)=C(C(N)=O)C(=O)[C@@]3(C#N)C(O)=C1C2=O [KL] | ** (toxicities less than 25 μg/mL are represented by **) |
| CN(C)c1cc(CCC2CCCC2)c(O)c2c1C[C@@]1(N)C[C@@]3(N)[C@H](N(C)C)C(O)=C(C(N)=O)C(=O)[C@@]3(C#N)C(O)=C1C2=O [KM] | ** (toxicities less than 25 μg/mL are represented by **) |
| CN(C)c1cc(C#CC2=CCCC2)c(O)c2c1C[C@@]1(N)C[C@@]3(N)[C@H](N(C)C)C(O)=C(C(N)=O)C(=O)[C@@]3(C#N)C(O)=C1C2=O [KN] | ** (toxicities less than 25 μg/mL are represented by **) |
| CCCCCN(Cc1cccc(-c2ccc(O)c3c2C[C@@]2(N)C[C@@]4(N)[C@H](N(C)C)C(O)=C(C(N)=O)C(=O)[C@@]4(C#N)C(O)=C2C3=O)c1)P(=O)(OCC)OCC [KO] | * (toxicities greater than >25 μg/ml are represented by *) |
| CCOP(=O)(OCC)C(Nc1ccccc1)c1ccc(-c2cc(N(C)C)c3c(c2O)C(=O)C2=C(O)[C@]4(C#N)C(=O)C(C(N)=O)=C(O)[C@@H](N(C)C)[C@]4(N)C[C@]2(N)C3)cc1 (stereo partly drawn) [KP] | * (toxicities greater than >25 μg/ml are represented by *) |
| CC(C)COC(=O)Nc1cc(N(C)C)c2c(c1O)C(=O)C1=C(O)[C@]3(C#N)C(=O)C(C(N)=O)=C(O)[C@@H](N(C)C)[C@]3(N)C[C@]1(N)C2 [KQ] | ** (toxicities less than 25 μg/mL are represented by **) |
